Active and inactive are the calls of the source. The calls are words filed in the database; no cut-off is given here.
Assays:
Mus musculus [1] = experiment: Antiinflammatory activity against carrageenan-induced hind paw edema in CD1 foot-pad mouse model assessed as reduction in paw swelling at 30 mg/kg, ip after 6 hrs; type: functional, organism-based; design: dose 30 mg/kg
Mus musculus [2] = experiment: Effect on LPS-induced nitric oxide production in C3H-FeJ peritonitis mouse peritoneal macrophages at 4 mg/kg, ip after 7 days; type: functional; details: route intraperitoneal
L929 [3] = experiment: Effect on TNF-mediated cytotoxicity against mouse L929 cells at 1 ug/mL after 18 hrs by crystal-violet staining assay; type: functional
Mus musculus [4] = experiment: Effect on TNF-mediated cytotoxicity against C3H-FeJ mouse L929 cells at 2 mg/kg, ip after 3 days; type: functional; details: route intraperitoneal
HT-29 [5] = experiment: Inhibition of LPS-stimulated […] release in human HT29 cells after 6 hrs by ELISA; type: functional, cell-based
Mus musculus [6] = experiment: Effect on TNF-mediated cytotoxicity against C3H-FeJ mouse […] cells at 4 mg/kg, ip after 7 days; type: functional; details: route intraperitoneal
Mus musculus [7] = experiment: Antiinflammatory activity in paraffin oil challenged C3H-FeJ peritonitis mouse model assessed as peritoneal levage macrophage count per 10^5/mL at 4 mg/kg, ip after 7 days; type: functional; details: route intraperitoneal
L929 [8] = experiment: Inhibition of LPS-induced nitric oxide production in mouse L929 cells assessed as nitrite formation; type: functional, cell-based
HT-29 [9] = experiment: Inhibition of LPS-stimulated prostaglandin E2 release in human HT29 cells after 6 hrs by ELISA; type: functional, cell-based
Mus musculus [10] = experiment: Antiinflammatory activity against carrageenan-induced hind paw edema in ICR foot-pad mouse model assessed as reduction in paw swelling at 30 mg/kg, ip after 6 hrs; type: functional, organism-based; design: dose 30 mg/kg
L929 [11] = experiment: Effect on TNF-mediated cytotoxicity against mouse L929 cells at 100 ug/mL after 18 hrs by crystal-violet staining assay; type: functional
Mus musculus [12] = experiment: Effect on LPS-induced nitric oxide production in C3H-FeJ peritonitis mouse peritoneal macrophages at 2 mg/kg, ip after 7 days; type: functional; details: route intraperitoneal
Mus musculus [13] = experiment: Antiinflammatory activity in paraffin oil challenged C3H-FeJ peritonitis mouse model assessed as peritoneal levage macrophage count per 10^5/mL at 2 mg/kg, ip after 3 days; type: functional; details: route intraperitoneal
Mus musculus [14] = experiment: Effect on LPS-induced nitric oxide production in C3H-FeJ peritonitis mouse peritoneal macrophages at 2 mg/kg, ip after 3 days; type: functional; details: route intraperitoneal
L929 [15] = experiment: Effect on TNF-mediated cytotoxicity against mouse L929 cells at 10 ug/mL after 18 hrs by crystal-violet staining assay; type: functional
Mus musculus [16] = experiment: Antiinflammatory activity in paraffin oil challenged C3H-FeJ peritonitis mouse model assessed as peritoneal levage macrophage count per 10^5/mL at 2 mg/kg, ip after 7 days; type: functional; details: route intraperitoneal
Mus musculus [17] = organism: Mus musculus; experiment: Antiinflammatory activity against LPS-galactosamine challenged C57BL/6J SIRS mouse model at 500 ug assessed as mortality within 24 hrs; type: functional, organism-based
Mus musculus [18] = experiment: Effect on LPS-induced nitric oxide production in C3H-FeJ peritonitis mouse peritoneal macrophages at 4 mg/kg, ip after 3 days; type: functional; details: route intraperitoneal
Mus musculus [19] = experiment: Antiinflammatory activity against TNBS-induced colitis in BALB/c IBD mouse model at 25 mg/kg, ip; type: functional, organism-based; design: dose 25 mg/kg
Mus musculus [20] = experiment: Effect on TNF-mediated cytotoxicity against C3H-FeJ mouse […] cells at 4 mg/kg, ip after 3 days; type: functional; details: route intraperitoneal
RAW [21] = experiment: Inhibition of LPS-induced iNOS mRNA level in mouse RAW 264.7 cells by Northern blot analysis; type: functional, cell-based
RAW [22] = experiment: Inhibition of LPS-induced TNFalpha mRNA level in mouse RAW 264.7 cells by Northern blot analysis; type: functional, cell-based
L929 [23] = experiment: Inhibition of LPS-induced TNFalpha production in mouse L929 cells after 4 hrs by ELISA; type: functional, cell-based; details: L929, 4 h
[24] = molecular target: T1, Tyrosine-protein kinase JAK3 (Mus musculus) (UniProt Q62137); experiment: Reduction of LPS-induced JAK3 phosphorylation in mouse RAW 264.7 cells at 100 ug/mL by Western blot analysis; type: cell-based
T1 sequence (whole entry): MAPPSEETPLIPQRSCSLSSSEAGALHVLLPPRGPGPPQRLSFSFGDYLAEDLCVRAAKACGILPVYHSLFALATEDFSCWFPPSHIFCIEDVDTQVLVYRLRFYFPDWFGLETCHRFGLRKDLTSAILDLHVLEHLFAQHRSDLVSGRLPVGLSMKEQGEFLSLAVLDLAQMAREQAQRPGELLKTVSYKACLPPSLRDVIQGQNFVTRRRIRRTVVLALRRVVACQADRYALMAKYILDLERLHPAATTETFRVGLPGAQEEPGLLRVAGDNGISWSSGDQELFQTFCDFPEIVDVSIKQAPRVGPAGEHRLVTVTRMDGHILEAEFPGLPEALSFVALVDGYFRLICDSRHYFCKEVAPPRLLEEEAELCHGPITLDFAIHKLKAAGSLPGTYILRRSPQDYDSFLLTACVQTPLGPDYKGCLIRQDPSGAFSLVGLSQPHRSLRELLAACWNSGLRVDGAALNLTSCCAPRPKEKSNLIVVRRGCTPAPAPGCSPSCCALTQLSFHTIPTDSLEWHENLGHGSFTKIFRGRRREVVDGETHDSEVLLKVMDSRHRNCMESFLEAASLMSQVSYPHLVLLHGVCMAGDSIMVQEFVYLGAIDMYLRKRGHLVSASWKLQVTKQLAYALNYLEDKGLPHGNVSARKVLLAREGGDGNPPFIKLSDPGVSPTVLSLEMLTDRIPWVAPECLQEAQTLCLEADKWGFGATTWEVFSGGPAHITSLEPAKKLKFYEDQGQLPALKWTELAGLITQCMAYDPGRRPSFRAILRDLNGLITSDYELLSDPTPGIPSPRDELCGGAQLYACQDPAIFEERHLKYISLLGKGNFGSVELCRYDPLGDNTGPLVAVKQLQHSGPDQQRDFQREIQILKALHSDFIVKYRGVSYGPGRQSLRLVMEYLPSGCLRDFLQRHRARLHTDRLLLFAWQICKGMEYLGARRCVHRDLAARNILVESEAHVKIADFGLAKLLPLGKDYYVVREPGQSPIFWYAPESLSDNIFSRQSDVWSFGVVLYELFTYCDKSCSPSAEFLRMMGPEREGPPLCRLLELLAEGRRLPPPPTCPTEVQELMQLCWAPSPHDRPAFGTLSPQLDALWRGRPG

Mus musculus [25] = experiment: Antiinflammatory activity in paraffin oil challenged ip dosed C3H-FeJ peritonitis mouse model after 7 days; type: functional; details: 168 h
RAW [26] = experiment: Inhibition of LPS-induced nitric oxide production in mouse RAW 264.7 cells assessed as nitrite formation; type: functional, cell-based
Mus musculus [27] = experiment: Effect on TNF-mediated cytotoxicity against C3H-FeJ mouse L929 cells at 2 mg/kg, ip after 7 days; type: functional; details: route intraperitoneal
Mus musculus [28] = experiment: Antiinflammatory activity in paraffin oil challenged C3H-FeJ peritonitis mouse model assessed as peritoneal levage macrophage count per 10^5/mL at 4 mg/kg, ip after 3 days; type: functional; details: route intraperitoneal
RAW [29] = experiment: Inhibition of LPS-induced TNFalpha production in mouse RAW 264.7 cells after 4 hrs by ELISA; type: functional, cell-based

**Q.** Which results are given for `COc1cc2ncnc(Nc3ccc(O)cc3)c2cc1OC` [WHI-P131]?
**A.** Activity (Mus musculus [1]): Active; Activity (Mus musculus [2]): 4 µM; Activity (L929 [3]): 45.9%; Activity (Mus musculus [4]): 31.8%; Activity (HT-29 [5]): Active; Activity (Mus musculus [6]): 34.6%; Activity (Mus musculus [7]): 2.5; IC50 (L929 [8]): 1.7 µM; Activity (HT-29 [9]): Active; Activity (Mus musculus [10]): Active; Activity (L929 [11]): 0%; Activity (Mus musculus [12]): 3 µM; Activity (Mus musculus [13]): 3.1; Activity (Mus musculus [14]): 40 µM; Activity (L929 [15]): 25.7%; Activity (Mus musculus [16]): 4.3; Activity (Mus musculus [17]): Non-toxic; Activity (Mus musculus [18]): 13 µM; Activity (Mus musculus [19]): Active; Activity (Mus musculus [20]): 18.8%; Activity (RAW [21]): Active; Activity (RAW [22]): Dose-dependent effect; IC50 (L929 [23]): 14.5 µM; Activity [24]: Active; ED50 (Mus musculus [25]): 2.8 mg/kg; IC50 (RAW [26]): 1.4 µM; Activity (Mus musculus [27]): 45.3%; Activity (Mus musculus [28]): 2.3; IC50 (RAW [29]): 124 µM

Reference: ChEMBL document CHEMBL1143984, “Anti-inflammatory activity profile of JANEX-1 in preclinical animal models” (Bioorg Med Chem, 2008)
